Measurements from ChEMBL document CHEMBL1153720, “Three dimensional pharmacophore modelling for c-Kit receptor tyrosine kinase inhibitors” (Eur J Med Chem, 2010).

Target: Mast/stem cell growth factor receptor Kit (Homo sapiens, UniProt P10721)
Assay: Inhibition of c-Kit by HTRF method

Mast/stem cell growth factor receptor Kit, sequence (P10721 whole entry): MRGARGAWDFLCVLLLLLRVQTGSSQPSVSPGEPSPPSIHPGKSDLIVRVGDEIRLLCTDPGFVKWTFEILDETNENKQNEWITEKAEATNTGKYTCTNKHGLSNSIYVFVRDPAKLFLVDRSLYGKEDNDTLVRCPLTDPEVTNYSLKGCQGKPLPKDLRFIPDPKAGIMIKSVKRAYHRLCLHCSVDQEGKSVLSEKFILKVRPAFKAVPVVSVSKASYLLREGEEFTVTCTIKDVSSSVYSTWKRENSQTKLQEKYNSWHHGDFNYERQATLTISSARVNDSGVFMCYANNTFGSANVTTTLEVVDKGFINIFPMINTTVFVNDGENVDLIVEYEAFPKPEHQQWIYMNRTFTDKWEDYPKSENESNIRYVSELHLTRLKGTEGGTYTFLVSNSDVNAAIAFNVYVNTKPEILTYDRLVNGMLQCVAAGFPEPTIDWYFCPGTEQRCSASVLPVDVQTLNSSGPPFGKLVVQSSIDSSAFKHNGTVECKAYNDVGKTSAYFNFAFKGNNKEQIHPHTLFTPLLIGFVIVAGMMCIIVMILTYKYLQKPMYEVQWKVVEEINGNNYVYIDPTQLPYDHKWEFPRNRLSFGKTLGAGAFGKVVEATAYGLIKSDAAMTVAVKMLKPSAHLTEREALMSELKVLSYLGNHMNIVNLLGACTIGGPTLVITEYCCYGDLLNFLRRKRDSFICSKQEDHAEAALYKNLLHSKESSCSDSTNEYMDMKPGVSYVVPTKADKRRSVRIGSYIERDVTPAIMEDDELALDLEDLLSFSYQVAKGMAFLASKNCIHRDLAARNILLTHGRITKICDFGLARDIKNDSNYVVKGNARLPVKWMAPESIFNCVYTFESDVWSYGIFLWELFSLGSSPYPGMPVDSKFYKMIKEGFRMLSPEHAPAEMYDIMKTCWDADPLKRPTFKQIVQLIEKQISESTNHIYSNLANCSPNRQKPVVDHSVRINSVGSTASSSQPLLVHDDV

- IC50: 200 nM
Compound: Cc1ccccc1NC(=O)Nc1ccc(-c2c(C)sc3ncnc(N)c23)c(Cl)c1
